Experimental data reported in patent publication US11491204B2, “Composition comprising poly I:C and LAG-3-IGG fusion protein” (CYTLIMIC INC., priority 2015, dated 2022).

Tests used:
B16-F10 melanoma cells = test: Tumor growth inhibitory effect by combination of immuno-adjuvants, B16-F10 melanoma inoculation model mice; type: in vivo, C57BL/6 mice
Experimental: To C57BL/6 mice, B16-F10 melanoma cells (1×10^5 cells per mouse) were subcutaneously inoculated to prepare cancer model mice.
The day of inoculation was specified as Day 0. On Day 5 and Day 12, twice in total, an admixture of gp100 peptide (50 μg per mouse) and an adjuvant in PBS was subcutaneously injected. The following adjuvants were used in respective mice groups.
Group 1: IFA (50 μL/mouse)
(§1) Group 2: Poly IC (50 μg/mouse)
Group 3: LAG-3 (1 μg/mouse)
Group 4: LAG-3 (1 μg/mouse)+Poly IC (50 μg/mouse)

P815 tumor cells [1] = test: Suppression effect of tumor growth by immunoadjuvant combination (P815 model); type: in vivo, DBA/2 mice
Excerpt: The following substances were used as adjuvants.
Poly I:C (TLR3 agonist) (Invivogen, SanDiego, USA)
RIBOXXOL (TLR3 agonist) (Riboxx, Radebeul, Germany)
MPL (TLR4 agonist) (Invivogen, SanDiego, USA)
Imiquimod (TLR7/8 agonist) (Invivogen, SanDiego, USA)
CpG (TLR9 agonist) (Invivogen, SanDiego, USA)
LAG-3 (Adipogen, SanDiego, USA)
P815 tumor cells were subcutaneously inoculated to DBA/2 mice in an amount of 5×10^5 cells per mouse to prepare cancer model mice. The day of inoculation was specified as Day 0. On Day 7, PIA CTL (2.5×10^5 cells per mouse) were intravenously injected. Day 8 and Day 15, an admixture of PIA peptide (50 μg per mouse) and an adjuvant in PBS was subcutaneously injected. Mice were divided into 9 groups each consisting of 4 or 5 mice and the following adjuvants were used respectively.
Group 1: PIA peptide alone (control)
as §1
Group 3: Poly IC (50 μg/mouse)+LAG-3 (1 μg/mouse)
Group 4: No PIA peptide, Poly IC (50 μg/mouse)+LAG-3 (1 μg/mouse) alone
Group 5: RIBOXXOL (100 μg/mouse)
Group 6: RIBOXXOL (100 μg/mouse)+LAG-3 (1 μg/mouse)
Group 7: MPL (10 μg/mouse)+LAG-3 (1 μg/mouse)
Group 8: Imiquimod (50 μg/mouse)+LAG-3 (1 μg/mouse)
Group 9: CpG (10 μg/mouse)+LAG-3 (1 μg/mouse)

P815 tumor cells [2] = test: Cancer vaccine: comparison of adjuvants with P1A peptide in P815-grafted DBA/2 mice; type: in vivo; conditions: groups of 5 mice; P1A CTL i.v. Day 8; P1A peptide 50 μg + adjuvant s.c. Day 9 and Day 16
Excerpt: In accordance with the protocol shown in FIG. 1, the effects of adjuvants in cancer vaccines using a cancer-antigen derived peptide were compared.
As cancer model mice, DBA/2 mice, to which P815 cells (DBA/2mouse-derived mouse mastocytoma) were grafted, were put in use.
As a cancer-antigen derived peptide, a peptide (hereinafter referred to as “PIA peptide”) consisting of a partial sequence of PIA protein was used, which is a tumor antigen of P815 tumor and known to be restrictively presented by an MHC H-2Ld. The amino acid sequence of P1A peptide are represented by LPYLGWLVF (SEQ. ID No: 1).
As P1A CTL, a T cell expressing a T cell receptor and recognizing P1A peptide was used. […] Based on the positive ratio, the number of P1A-CTL cells was determined and administered.
As the adjuvants, the following substances were used. • Whole pertussis bacterial cell (PT) (BioFarma, Bandung, Indonesia) • Poly I:C (TLR3 agonist) (Invivogen, SanDiego, USA) • CpG (TLR9 agonist) (Invivogen, SanDiego, USA) • IFA (incomplete Freund's adjuvant) (Seppic, Paris, France) • LAG-3 (Adipogen, SanDiego, USA) Method
P815 tumor cells were subcutaneously inoculated to DBA/2 mice in an amount of 5×10^5 cells per mouse. The day of inoculation was specified as Day 0. On Day 8, P1A CTL (2.5×10^5 cells per mouse) were intravenously injected. […]

Row | Substance | effect of extending survival time (in words) (B16-F10 melanoma cells; Poly IC and LAG-3 alone compared to IFA group, combination compared to IFA, Poly IC and LAG-3 groups) | Day on which five mice all died (B16-F10 melanoma cells; gp100 peptide 50 μg + adjuvant s.c. Day 5 and Day 12) [days] | mice survived (out of 5) (P815 tumor cells [1]; with PIA peptide 50 μg s.c. Day 8 and Day 15, time point apparently Day 40) | number of mice survived until Day 70 without increasing tumor size (P815 tumor cells [2]) | Day up to which all mice died (P815 tumor cells [1]; 5 out of 5 mice, PIA peptide without adjuvant) [days]
1 | Polyinosinic:polycytidylic acid [Poly IC] | a significant effect of extending survival time was not observed | 35 | Four | 1 | –
2 | LPYLGWLVF (listed as Mus musculus) [PIA peptide alone] | – | – | – | – | ≤ 40
